Experimental data from ChEMBL document CHEMBL6121062, “Discovery, Optimization, and Preclinical Pharmacology of EP652, a METTL3 Inhibitor with Efficacy in Liquid and Solid Tumor Models” (J Med Chem, 2025).
Activity calls are given as the source filed them. The calls are words filed in the database; no cut-off is given here.

Experiments:
[1] = Half life in rat liver microsomes; format: ADME, Microsome
[2] = biological target: T1, METTL3/METTL14 (Homo sapiens, UniProt Q86U44); test: Displacement of [3H]-SAM from METTL3/METTL14 (unknown origin) using 5'biotinylated-UACACUCGAUCUGGACUAAAGGUGCUC-3' RNA as substrate preincubated for 10 mins followed by substrate/[3H]-SAM addition measured after 90 mins by SPA; format: protein-complex assay
T1 sequence (Q86U44 whole entry): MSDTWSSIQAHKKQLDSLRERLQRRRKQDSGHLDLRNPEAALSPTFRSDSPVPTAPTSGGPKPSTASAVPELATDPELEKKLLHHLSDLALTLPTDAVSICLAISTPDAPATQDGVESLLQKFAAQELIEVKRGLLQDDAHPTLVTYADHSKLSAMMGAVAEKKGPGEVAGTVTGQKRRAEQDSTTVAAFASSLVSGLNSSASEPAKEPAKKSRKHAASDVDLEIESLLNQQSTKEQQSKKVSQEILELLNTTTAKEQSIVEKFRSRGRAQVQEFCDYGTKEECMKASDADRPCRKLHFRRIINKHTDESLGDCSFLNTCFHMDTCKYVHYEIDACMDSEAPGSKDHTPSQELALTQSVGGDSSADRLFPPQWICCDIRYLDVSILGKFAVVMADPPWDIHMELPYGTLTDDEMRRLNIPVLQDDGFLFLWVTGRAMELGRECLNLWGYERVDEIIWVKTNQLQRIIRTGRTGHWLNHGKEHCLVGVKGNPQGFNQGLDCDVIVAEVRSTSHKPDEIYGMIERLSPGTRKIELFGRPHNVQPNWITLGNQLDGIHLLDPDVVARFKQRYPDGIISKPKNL
T1 sequence (Q9HCE5 whole entry, further chain): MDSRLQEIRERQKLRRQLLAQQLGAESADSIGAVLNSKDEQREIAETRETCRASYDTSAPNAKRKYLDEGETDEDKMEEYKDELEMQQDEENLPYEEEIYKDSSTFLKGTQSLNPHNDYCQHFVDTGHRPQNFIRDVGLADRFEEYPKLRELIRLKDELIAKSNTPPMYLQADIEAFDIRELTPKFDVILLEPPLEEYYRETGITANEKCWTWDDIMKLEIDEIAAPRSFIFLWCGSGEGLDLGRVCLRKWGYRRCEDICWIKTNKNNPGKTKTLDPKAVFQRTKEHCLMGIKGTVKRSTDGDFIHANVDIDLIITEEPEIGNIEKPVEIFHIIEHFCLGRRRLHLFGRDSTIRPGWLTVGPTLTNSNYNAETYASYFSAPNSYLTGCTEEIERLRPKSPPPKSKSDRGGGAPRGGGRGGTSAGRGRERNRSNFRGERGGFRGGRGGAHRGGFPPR

[3] = tested on: Kasumi 1; test: Antiproliferative activity against human Kasumi 1 cells assessed as inhibition of cell viability incubated for 72 hrs by ATPlite assay; format: functional, cell-based; conditions: Kasumi 1, 72 h
[4] = Lipophilicity, logD of compound in 1-octanol/PBS at pH 7.4 incubated for 24 hrs by HPLC analysis; format: physicochemical
[5] = Stability in human hepatocytes assessed as half life; format: ADME, cell-based, Hepatocyte
[6] = biological target: Cytochrome P450 2C19 (Homo sapiens, UniProt P33261); test: Inhibition of CYP2C19 (unknown origin); format: ADME
Sequence of Cytochrome P450 2C19 (P33261 whole entry): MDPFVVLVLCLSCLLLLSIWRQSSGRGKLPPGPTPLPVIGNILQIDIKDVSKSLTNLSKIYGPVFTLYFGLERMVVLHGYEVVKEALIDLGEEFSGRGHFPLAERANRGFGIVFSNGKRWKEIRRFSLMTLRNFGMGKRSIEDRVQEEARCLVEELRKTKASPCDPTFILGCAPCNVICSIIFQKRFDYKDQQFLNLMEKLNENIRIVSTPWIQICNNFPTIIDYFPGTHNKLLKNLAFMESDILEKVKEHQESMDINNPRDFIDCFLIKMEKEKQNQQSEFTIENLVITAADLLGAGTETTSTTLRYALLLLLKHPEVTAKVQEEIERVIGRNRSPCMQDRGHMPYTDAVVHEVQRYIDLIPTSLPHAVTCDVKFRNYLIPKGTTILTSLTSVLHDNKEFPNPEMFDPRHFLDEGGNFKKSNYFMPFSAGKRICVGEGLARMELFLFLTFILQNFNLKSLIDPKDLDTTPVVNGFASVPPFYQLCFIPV

[7] = biological target: Voltage-gated inwardly rectifying potassium channel KCNH2 (Homo sapiens, UniProt Q12809); test: Inhibition of hERG transfected in HEK293 cells at 20 mV; format: toxicity, cell-based
Sequence of Voltage-gated inwardly rectifying potassium channel KCNH2 (Q12809 whole entry): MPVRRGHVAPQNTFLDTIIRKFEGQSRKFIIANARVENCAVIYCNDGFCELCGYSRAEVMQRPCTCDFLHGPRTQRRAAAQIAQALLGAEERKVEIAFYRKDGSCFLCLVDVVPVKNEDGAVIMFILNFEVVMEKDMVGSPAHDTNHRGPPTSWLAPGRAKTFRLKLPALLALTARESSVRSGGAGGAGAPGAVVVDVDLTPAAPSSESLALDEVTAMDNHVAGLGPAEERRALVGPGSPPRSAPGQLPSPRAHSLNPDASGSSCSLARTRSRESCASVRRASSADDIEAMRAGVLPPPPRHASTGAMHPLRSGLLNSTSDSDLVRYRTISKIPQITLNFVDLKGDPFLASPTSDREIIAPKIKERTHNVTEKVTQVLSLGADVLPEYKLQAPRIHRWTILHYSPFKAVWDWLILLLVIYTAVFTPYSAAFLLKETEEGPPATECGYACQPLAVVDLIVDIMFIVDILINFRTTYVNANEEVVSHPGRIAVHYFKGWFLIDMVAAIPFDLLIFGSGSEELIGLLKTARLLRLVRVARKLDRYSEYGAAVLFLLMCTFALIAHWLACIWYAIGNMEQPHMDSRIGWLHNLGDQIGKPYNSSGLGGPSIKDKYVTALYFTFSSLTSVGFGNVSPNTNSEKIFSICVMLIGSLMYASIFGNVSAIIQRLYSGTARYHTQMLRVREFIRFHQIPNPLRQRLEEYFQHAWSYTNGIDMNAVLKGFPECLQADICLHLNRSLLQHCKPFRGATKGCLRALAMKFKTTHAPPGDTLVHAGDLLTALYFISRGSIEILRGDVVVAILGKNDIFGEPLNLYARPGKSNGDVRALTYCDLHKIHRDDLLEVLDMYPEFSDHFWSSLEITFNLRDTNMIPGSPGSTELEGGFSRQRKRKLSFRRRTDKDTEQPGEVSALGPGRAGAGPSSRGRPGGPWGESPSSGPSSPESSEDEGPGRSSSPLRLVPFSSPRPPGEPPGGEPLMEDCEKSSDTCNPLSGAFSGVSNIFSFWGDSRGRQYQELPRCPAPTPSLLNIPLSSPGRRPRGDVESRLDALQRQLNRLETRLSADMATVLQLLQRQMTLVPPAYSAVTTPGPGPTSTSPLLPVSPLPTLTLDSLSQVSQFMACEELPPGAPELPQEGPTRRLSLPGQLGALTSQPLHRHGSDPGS

[8] = tested on: Caov-3 cell line; test: Antiproliferative activity against human Caov-3 cells assessed as inhibition of cell viability incubated for 72 hrs by ATPlite assay; format: functional, cell-based; conditions: Caov-3, 72 h
[9] = biological target: METTL3/METTL14 (Homo sapiens) (UniProt Q86U44+Q9HCE5); test: (§1) Inhibition of METTL3/METTL14-mediated m6A mRNA expression in human Kasumi 1 cells incubated for 24 hrs by LC-MS/MS analysis; format: cell-based
[10] = biological target: T1, METTL3/METTL14; test: as §1; format: cell-based
[11] = Unbound AUC in mouse at 30 mg/kg, ip; format: ADME, organism-based; conditions: in vivo
[12] = In vivo inhibition of METTL3/METTL14-mediated m6A mRNA expression in PBMC of rat at 0.3 mg/kg, ip relative to control; format: functional
[13] = tested on: Acute myeloid leukemic cell; test: Antitumor activity against patient-derived human Acute myeloid leukemic cells xenografted in NSG mouse assessed as prolongation of animal survival at 30 mg/kg, ip qd treated for 91 days measured upto 112 days; format: functional, organism-based; conditions: time <= 112.0 day
[14] = tested on: MV4-11; test: Antitumor activity against human MV4-11 cells expressing Luc-mCh-Puro xenografted in NSG mouse assessed as decrease in hCD45+ cells in blood at 30 mg/kg, ip qd measured after 28 days by flow cytometry; format: functional, organism-based; conditions: time 28.0 day
[15] = tested on: MV4-11; test: Antitumor activity against human MV4-11 cells expressing Luc-mCh-Puro xenografted in NSG mouse assessed as decrease in hCD45+ cells in spleen at 30 mg/kg, ip qd measured after 28 days by flow cytometry; format: functional, organism-based; conditions: time 28.0 day
[16] = tested on: MV4-11; test: Antitumor activity against human MV4-11 cells expressing Luc-mCh-Puro xenografted in NSG mouse administered intraperitoneally once daily measured after 19 days by bioluminescence imaging analysis; conditions: dose 10-30 mg/kg, route ip, time 19.0 day
[17] = tested on: A549; test: Antitumor activity against human A549 cells xenografted in NSG mouse assessed as tumor growth inhibition at 30 mg/kg, ip qd treated for 50 days by bioluminescence imaging analysis; format: functional, organism-based; conditions: time 50.0 day
[18] = Toxicity in NSG mouse xenografted with human FaDu cells assessed as body weight gain at 30 mg/kg, ip qd treated for 20 days; format: organism-based; conditions: in vivo, 480 h, time 20 day
[19] = Toxicity in NSG mouse xenografted with human A549 cells assessed as macroscopic adverse events at 30 mg/kg, ip qd treated for 50 days; format: organism-based; conditions: in vivo, 1200 h, time 50 day
[20] = Toxicity in NSG mouse xenografted with human SK-OV-3 cells assessed as macroscopic adverse events at 30 mg/kg, ip qd treated for 83 days; format: organism-based; conditions: in vivo, 1992 h, time 83 day

## C[C@@H](n1cc(-c2cncc(N(C)C)c2)nn1)n1ccc(N2CCC[C@@H](NCC3CC3)C2)cc1=O
[1]
  half-life: 1.52 h
[2]
  IC50: 2 nM
[3]
  IC50: 37 nM
[4]
  logD at 24 h: 1.16
[5]
  half-life: > 4 h
[6]
  IC50: > 100000 nM
[7]
  IC50: > 30000 nM
[8]
  IC50: 20 nM
[9]
  inhibition: Dose-dependent-effect
[10]
  IC50: 5 nM
[11]
  fAUC: 175.8 µM·min
[12]
  Emax at 0.3 mg/kg: ~75%
[13]
  Activity: Active
[14]
  Activity: Active
[15]
  Activity: Active
[16]
  Activity: Dose-dependent-effect
[17]
  inhibition: Active
[18]
  Activity: Non-toxic
[19]
  Activity: Non-toxic
[20]
  Activity: Non-toxic
